The source of these data is ChEMBL document CHEMBL1130628, “Synthesis and antiproliferative activity of a cyclic analog of dolastatin 10” (Bioorg Med Chem Lett, 1998).

Assay [1] relates to L1210. The assay can be described thus: Compound was evaluated for antiproliferative activity against murine leukemia (L1210) cell lines. The settings on record: Mus musculus. The assay is classed as functional, cell-based.
The target in assay [2] is T1, Tubulin alpha chain (Sus scrofa, UniProt P02550). Briefly: Compound was tested in vitro for inhibition of tubulin polymerization. The assay is classed as functional.
In assay [3] the test system is HT-29. Briefly: Compound was evaluated for antiproliferative activity against human colon adenocarcinoma (HT-29) cell lines. Format: functional, cell-based.
The target in assay [4] is T1, Tubulin alpha chain. The assay can be described thus: Compound was tested in vitro for inhibition of tubulin polymerization. Format: functional.
Assay [5] concerns L1210. The assay can be described thus: Compound was evaluated for antiproliferative activity against murine leukemia (L1210) cell lines. Conditions: Mus musculus. The assay is classed as functional, cell-based.

T1 sequence (P02550 whole entry, looked up): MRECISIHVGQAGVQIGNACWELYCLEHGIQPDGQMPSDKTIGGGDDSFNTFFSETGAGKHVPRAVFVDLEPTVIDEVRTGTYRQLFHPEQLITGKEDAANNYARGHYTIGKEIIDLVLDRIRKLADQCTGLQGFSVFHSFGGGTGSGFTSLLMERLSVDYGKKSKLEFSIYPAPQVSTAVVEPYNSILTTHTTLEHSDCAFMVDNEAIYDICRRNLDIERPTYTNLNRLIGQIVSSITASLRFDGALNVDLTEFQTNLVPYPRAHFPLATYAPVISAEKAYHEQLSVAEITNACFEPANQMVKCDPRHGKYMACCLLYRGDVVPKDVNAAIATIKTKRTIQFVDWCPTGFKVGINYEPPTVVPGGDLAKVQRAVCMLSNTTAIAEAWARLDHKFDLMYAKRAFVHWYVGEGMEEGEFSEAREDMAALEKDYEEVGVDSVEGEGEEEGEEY

`CC[C@H](C)[C@H]1[C@H](OC)CC(=O)N2CCC[C@H]2[C@H](OC)[C@H](C)C(=O)N[C@@H](Cc2ccccc2)c2nc(cs2)C(=O)O[C@H](C)[C@H](N(C)C)C(=O)N[C@@H](C(C)C)C(=O)N1C`: the IC50 was 111 nM in assay [1], 39000 nM in assay [2] and 58.5 nM in assay [3].

As for `CC[C@H](C)[C@@H]([C@@H](CC(=O)N1CCC[C@H]1[C@H](OC)C(C)C(=O)NC(Cc1ccccc1)c1nccs1)OC)N(C)C(=O)[C@@H](NC(=O)[C@H](C(C)C)N(C)C)C(C)C` (single isomer, unassigned) [DOLASTATIN-10], the concentration for half-maximal inhibition (IC50) in assay [4] came out at 2200 nM; in assay [3] it was 0.06 nM; in assay [5] it was 0.03 nM.

One may read the IC50 as the concentration needed to halve the response being measured. Read a low IC50 as inhibition by little substance.
